Several values for one entry are separate records, joined by “and”; a condition that tells them apart may be missing. Equal values may be shown once. Where a name gives a salt, the structure may show the parent alone.
How the values were obtained:
PAF induced lethality = PAF induced lethality in mice; type: in vivo; settings: PAF 150 μg/kg IV
Procedure: PAF given I.V. to mice causes an immediate hypotensive shock leading to death in 1 hour or less. Compounds are given intraperitoneally or P.O. at various times before the PAF challenge. Animals alive after 2 hours are counted and the activity of test compounds expressed as % survival corrected for any control (saline treated) animals which survived the PAF challenge.
Effect of Compound Given I.V. or P.O. in Protecting
Mice from a Lethal Challenge of PAF^a
^a lethal challenge of PAF is 150 μg/kg IV.

[1] = tested on: Endotoxin induced shock and mortality; assay: Endotoxin induced shock and mortality in mice: low dose, chronic mouse endotoxemia; type: in vivo, Male Balb/c mice
Source text: Endotoxin administration produces a shock-like state characterized by vascular permeability changes, hypotension, neutropenia, thrombocytopenia,multiple organ damage and death. The major mediators released after endotoxin injection are TNF (tumor necrosis factor), PAF (platelet activating factor) and […] (interleukin I). PAF administration mimics the signs and symptoms of endotoxin induced shock and death and endotoxin also induces the release of PAF. Therefore, the effects of endotoxin should be blocked with a PAF antagonist.
Male Balb/c mice (approximately 20 g) are obtained from Charles River Laboratories and used after a one-two week acclimation period. Animals are given (ip) test compound dissolved in saline or water (sonicated and heated) at different time intervals prior to and after the ip injection of endotoxin (usually 2 hours before LPS endotoxin, and 3-4 hours after). Sigma E. Coli endotoxin, 0111:B4, phenol extraction, catalog #L2630 is used for these studies.
For the chronic endotoxin shock model, a lower dose of endotoxin is administered (generally 15 to 20 mg/kg i.p). This dose gives an LD80 in two to four days following LPS administration. Test compounds are given 2 hours before LPS and 3-4 hours after on the first day, followed by 3 or 4 consecutive days of BID dosing. The number of survivors in each group is recorded each day for a period of 5 to 7 days.
Effect of Compounds Given i.p. in Low Dose, Chronic Mouse Endoxemia

PAF receptor = target: T1, PAF receptor (Oryctolagus cuniculus, UniProt G1TEI7); assay: Platelet Activating Factor antagonism in vitro: inhibition of PAF induced platelet aggregation in rabbit platelet rich plasma; type: cell-based, rabbit (New Zealand White); settings: PAF chall conc 5.0000E-08 M
T1 construct: centrifuged at 800 rpm for 10-15 minutes at room temperature to recover the platelet rich plasma (PRP); endogenous in cells; host or cells: platelets in citrated platelet rich plasma from male New Zealand White rabbits (Oryctolagus cuniculus)
Procedure: Test compounds are evaluated as PAF receptor antagonists in vitro by measuring inhibition of PAF (platelet activating factor) induced platelet aggregation. Platelet aggregation is measured by a modification of the method described in […], et. al., J. Med. Chem., 27 1174, 1984. […] All syringes and pipets are plastic. The blood is gently mixed and immediately centrifuged at 800 rpm for 10-15 minutes at room temperature to recover the platelet rich plasma (PRP). Platelet poor plasma (PPP) is prepared by centrifuging PRP at 2800 rpm for 10 minutes at room temperature. Dilutions (1:3000) of PRP in Isoton® diluent are made and platelet counts are determined on a Coulter Thrombocounter which is standardized with platelet reference standards (Interscience Platelet Control, Portland, Oreg.). PRP platelet counts are adjusted to approximately 400,000-500,000 platelets/μl by the addition of PPP. L-PAF (Platelet Activating Factor) is obtained from Calbiochem. […] All solutions are made up in plastic tubes, stored on ice and protected from heat and light. Solutions are prepared fresh or frozen at -20° C. and used within 48 hours. Incubation mixtures consisted of 400 μl PRP, 50 μl of saline diluent or test compound and 50 μl of PAF agonist. More specifically, 400 μl of PRP is stabilized in a cuvette for 1-2 minutes at 37° C. in the aggregometer to achieve a stable baseline, then 50 μl of saline or test compound is added and incubated for 5 minutes before addition of the challenge concentration of PAF. A submaximal concentration is determined from the dose response curve for PAF for that experiment. In general, the challenge concentration is 5E-8 or IE-7M. Aggregation is monitored for 5 minutes. Samples containing test compound or diluent are run simultaneously for comparison. Test compounds are initially evaluated at a screening concentration of 1E-5M. […] The recording equipment consists of a dual channel Chronolog aggregometer connected to a dual channel 10MV full scale deflection Omniscribe chart recorder (Houston Instruments). The chart recorder is calibrated daily with the use of a suspension of Bio-Rad latex beads (S-X 12 400 mesh) which has a density slightly greater than rabbit PRP. […] These limits defined a full scale deflection. The aggregation traces are analyzed by a digitizing method (C. Kohler and B. Zoltan, J. Pharm. Methods, 12, 113, 1984) with x, y coordinate data stored in a computer file. A suitable program computes parameters of interest such as the magnitude of aggregation. | ^a dose of compound that gives the indicated % inhibition. | ^b the % inhibition of PAF induced platelet aggregation. | ^c the molar concentration of compound that will inhibit 50% of the | platelet aggretation induced by PAF given at the indicated PAF challenge | concentration.

T1 sequence (G1TEI7 1-342): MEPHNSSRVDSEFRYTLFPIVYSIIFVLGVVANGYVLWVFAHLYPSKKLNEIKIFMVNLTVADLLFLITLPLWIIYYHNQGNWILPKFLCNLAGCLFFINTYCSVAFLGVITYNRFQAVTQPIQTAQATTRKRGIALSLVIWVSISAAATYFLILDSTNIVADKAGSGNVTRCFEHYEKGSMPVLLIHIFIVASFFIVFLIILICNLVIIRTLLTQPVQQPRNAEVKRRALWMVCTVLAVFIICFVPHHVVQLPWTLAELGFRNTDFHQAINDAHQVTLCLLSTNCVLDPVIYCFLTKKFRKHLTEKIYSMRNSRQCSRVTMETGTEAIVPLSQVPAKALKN

Row | SMILES | % Survival ([1]; day 0, dose 10 mg/kg i.p.) [%] | No Surv./tot. ([1]; day 0, dose 10 mg/kg i.p.) | % Survival ([1]; day 1, dose 10 mg/kg i.p.) [%] | No Surv./tot. ([1]; day 1, dose 10 mg/kg i.p.) | % Survival ([1]; day 2, dose 10 mg/kg i.p.) [%] | No Surv./tot. ([1]; day 2, dose 10 mg/kg i.p.) | % Survival ([1]; day 3, dose 10 mg/kg i.p.) [%] | No Surv./tot. ([1]; day 3, dose 10 mg/kg i.p.) | % Survival ([1]; day 4, dose 10 mg/kg i.p.) [%] | No Surv./tot. ([1]; day 4, dose 10 mg/kg i.p.) | % Survival ([1]; day 5, dose 10 mg/kg i.p.) [%] | No Surv./tot. ([1]; day 5, dose 10 mg/kg i.p.) | No Surv./tot. ([1]; day 6, dose 10 mg/kg i.p.) | % Survival ([1]; day 0, dose 20 mg/kg i.p.) [%] | No Surv./tot. ([1]; day 0, dose 20 mg/kg i.p.) | % Survival ([1]; day 1, dose 20 mg/kg i.p.) [%] | No Surv./tot. ([1]; day 1, dose 20 mg/kg i.p.) | % Survival ([1]; day 2, dose 20 mg/kg i.p.) [%] | No Surv./tot. ([1]; day 2, dose 20 mg/kg i.p.) | % Survival ([1]; day 3, dose 20 mg/kg i.p.) [%] | other results
1 | CCCCCCCCCCCCCCOc1ccc(CN(C(C)=O)c2cccc(C[n+]3csc(C)c3)c2)cc1.[Br-] [3-[[3-[Acetyl[[4-(tetradecyloxy)phenyl]methyl]amino]phenyl]methyl]-5-methylthiazolium bromide] | 100 | 30/30 | 73 | 22/30 | 33 | 10/30 | 26 | 8/30 | 23 | 7/30 | 23 | 7/30 | 7/30 | – | – | – | – | – | – | – | % Survival (PAF induced lethality; I.V. 1 mg/kg): 83%; % Survival (PAF induced lethality; I.V. .25 mg/kg): 100%; % Survival (PAF induced lethality; I.V. .5 mg/kg): 83%; % Survival (PAF induced lethality; P.O. 5 mg/kg): 52%; % Survival (PAF induced lethality; P.O. 10 mg/kg): 75%; % Survival (PAF induced lethality; P.O. 20 mg/kg): 75%; % Survival ([1]; day 6, dose 10 mg/kg i.p.): 23%; % INH (inhibition of PAF induced platelet aggregation) (PAF receptor; dose .00001 M): 100.0% and 90.0%
2 | CCCCCCCCCCCCCCOc1ccc(CC(=O)Nc2cccc(C[n+]3ccsc3)c2)cc1.[Br-] [3-[[3-[[[-4-(tetradecyloxy)phenyl]acetyl]amino]phenyl]methyl]thiazolium bromide] | 100 | 30/30 | 83 | 25/30 | 66 | 20/30 | 63 | 19/30 | 63 | 19/30 | 63 | 19/30 | 19/30 | 100 | 30/30 | 90 | 27/30 | 43 | 13/30 | 40 | % Survival (PAF induced lethality; P.O. 40 mg/kg): 40%; No Surv./tot. ([1]; day 3, dose 20 mg/kg i.p.): 12/30; % Survival ([1]; day 4, dose 20 mg/kg i.p.): 40%; No Surv./tot. ([1]; day 4, dose 20 mg/kg i.p.): 12/30; % Survival ([1]; day 5, dose 20 mg/kg i.p.): 40%; No Surv./tot. ([1]; day 5, dose 20 mg/kg i.p.): 12/30; No Surv./tot. ([1]; day 6, dose 20 mg/kg i.p.): 12/30; % Survival ([1]; day 7, dose 10 mg/kg i.p.): 63%; No Surv./tot. ([1]; day 7, dose 10 mg/kg i.p.): 19/30; % Survival ([1]; day 7, dose 20 mg/kg i.p.): 40%; No Surv./tot. ([1]; day 7, dose 20 mg/kg i.p.): 12/30; % INH (inhibition of PAF induced platelet aggregation) (PAF receptor; dose .000001 M): 93.0% and 62.0%
3 | CCCCCCCCCCCCCCOc1ccc(CN(C(=O)NC)c2cccc(C[n+]3csc(C)c3)c2)cc1.[Br-] [5-Methyl-3-[[3-[[(methylamino)carbonyl]-[[4-(tetradecyloxy)phenyl]methyl]amino]phenyl]methyl]thiazolium bromide] | 100 | 30/30 | 80 | 24/30 | 46 | 14/30 | 46 | 14/30 | 46 | 14/30 | 46 | 14/30 | 14/30 | 100 | 30/30 | 90 | 27/30 | 23 | 7/30 | 20 | No Surv./tot. ([1]; day 3, dose 20 mg/kg i.p.): 6/30; % Survival ([1]; day 4, dose 20 mg/kg i.p.): 20%; No Surv./tot. ([1]; day 4, dose 20 mg/kg i.p.): 6/30; % Survival ([1]; day 5, dose 20 mg/kg i.p.): 20%; No Surv./tot. ([1]; day 5, dose 20 mg/kg i.p.): 6/30; No Surv./tot. ([1]; day 6, dose 20 mg/kg i.p.): 6/30; % Survival ([1]; day 7, dose 10 mg/kg i.p.): 46%; No Surv./tot. ([1]; day 7, dose 10 mg/kg i.p.): 14/30; % Survival ([1]; day 7, dose 20 mg/kg i.p.): 20%; No Surv./tot. ([1]; day 7, dose 20 mg/kg i.p.): 6/30
4 | CCCCCCCCCCCCCCOc1ccc(CC(=O)Nc2cccc(-n3ccnc3C)c2)cc1 [N-[3-(2-Methyl-1H-imidazol-1-yl)phenyl-4-(tetradecyloxy)benzeneacetamidemonohydrochloride] | – | – | – | – | – | – | – | – | – | – | – | – | – | – | – | – | – | – | – | – | % INH (inhibition of PAF induced platelet aggregation) (PAF receptor; dose .00001 M, monohydrochloride): 39.0%
